Results reported in patent US7179495B1 (Universitaetsklinikum Freiburg, priority 1998, dated 2007).

What was measured:
[1] = test system: Jurkat (leukaemia); test: apoptotic DNA fragmentation by DNA gel electrophoresis; type: cell-based, human
Method: The DNA fragmentation was determined by means of DNA gel electrophoresis. Jurkat (leukaemia) was used as the tumour cell line.
Apoptotic DNA fragments were isolated by means of lysis with NP 40. The cells were washed and pelleted after 4 hours or after 24 hours, respectively. The cell pellet was incubated for 10 sec. with lysis buffer (1% NP 40, Sigma; 20 mM EDTA, Sigma; 50 mM Tris-HCl, Sigma). the lysates were mixed with 1% SDS (Sigma), incubated at 56° C. for 2 h with RNase (5 μg/μl) (Boehringer), and digested with proteinase K (Sigma) (2.5 μg/μl) for 2 h at 37° C. After 10 M ammonium acetate had been added, the DNA was precipitated with 100% ethanol at −20° C. and analysed by means of gel electrophoresis on 1% agarose gels.

[2] = test system: epidermal cells (EC) and T cells (TC); test: MECLR in vitro, EC or TC preincubated with hyperforin; details: FIG. 9
Method: The roof of the blister was dissected out under sterile conditions using a scalpel and a suspension of epidermal cells (EC) was prepared by treating with trypsin. […] After that, the cells were washed and 50,000 EC were cocultured for 6 days (37° C., 5% CO2) with 150,000 TC (T cells) in 1640 RPMI containing 10% foetal calf serum (FCS) containing 1% penicillin-streptomycin in 96-well flat-bottomed microtitre plates (Greiner). 1 μCurie of ^3H-thymidine (Amersham) was then added per well and, after 18 h, the incorporated radioactivity was measured in a scintillation counter (Canberra Packard). The radioactivity which is measured is proportional to the replication of the DNA in the cells.

[3] = test system: HaCaT cells; test: proliferation of keratinocytes, 3H-thymidine incorporation; type: cell-based, human
[4] = test system: T cells; test: induction of apoptosis in T cells; type: cell-based
[5] = test system: keratinocytes (HaCaT); test: induction of apoptosis in keratinocytes; type: cell-based
[6] = test system: T cells; test: proliferation of T cells; type: cell-based

## CC(C)=CCC[C@]1(C)[C@@H](CC=C(C)C)CC2(CC=C(C)C)C(=O)C(CC=C(C)C)=C(O)C1(C(=O)C(C)C)C2=O (stereo partly shown) [hyperforin]
[1]; 40 μM, 4 hours
  apoptotic DNA fragmentation: ++
[1]; 40 μM, 24 hours
  apoptotic DNA fragmentation: ++
[1]; hyperforin 40 μM vs taxol 10 μM, fully developed after only 4 hours
  speed of apoptosis induction compared with taxol: induces apoptosis in tumour cells more rapidly than does taxol
[2]; EC incubated 24 h with 24 μg of hyperforin/ml
  proliferation in MECLR: significantly inhibits proliferation
[2]; TC incubated 24 h with 24 μg of hyperforin/ml
  proliferation in MECLR: significantly inhibits proliferation
[3]; human keratinocytes
  concentration from which a proliferation-inhibiting effect is seen: ≥ 100 ng/mL
[3]; hyperforin 100 μg/ml, 24 h, FIG. 6
  proliferation of HaCaT cells: virtually completely inhibited

## Cc1cc(O)c2c(=O)c3c(O)cc(O)c4c5c(O)cc(O)c6c(=O)c7c(O)cc(C)c8c1c2c(c34)c(c78)c65 [hypericin]
[4]
  induction of apoptosis: can induce apoptasis
[5]
  induction of apoptosis: can induce apoptasis
[6]
  effect on proliferation of T cells: proliferation-inhibiting effect
[3]
  effect on proliferation of keratinocytes (HaCaT): proliferation-inhibiting effect

## CC(=O)O[C@H]1C(=O)[C@@]2(C)[C@H]([C@H](OC(=O)c3ccccc3)[C@]3(O)C[C@H](OC(=O)[C@H](O)[C@@H](NC(=O)c4ccccc4)c4ccccc4)C(C)=C1C3(C)C)[C@]1(OC(C)=O)CO[C@@H]1C[C@@H]2O [taxol, reference compound]
[1]; 10 μM, 4 hours
  apoptotic DNA fragmentation: +
[1]; 10 μM, 24 hours
  apoptotic DNA fragmentation: ++
